Here are results for twelve compounds from patent US8877816B2, “4-(or 5-) substituted catechol derivatives” (Decode Genetics EHF, priority 2007, dated 2014).

A word on the IC50: it is the midpoint of a concentration-inhibition curve.

The target of one assay is PDE4 h4D7 (Homo sapiens, UniProt Q08499). The experiment in a line: In-vitro real-time enzyme-coupled spectrophotometric assay for PDE4 enzymes (h4D7). The settings on record: PDE4 isoform h4D7; enzyme-coupled NADH assay, absorbance at 340 nm. Format: biochemical. Here is the method:
(§1) In-vitro assay for PDE4 enzymes. The in-vitro activity of PDE4 enzymes and the in-vitro potency of therapeutic agents described in the present invention was measured using a real-time, enzyme-coupled spectrophotometric assay. By using three different coupling enzymes, the product of the PDE4 reaction is coupled to the oxidation of the reduced form β-nicotinamide adenine dinucleotide (NADH), which dissipation can be monitored spectrophotmetrically at […].
(§2) Assay description. Buffer A containing 50 mM Tris, pH 8.0, 16 mM MgCl2 and 80 mM KCl is prepared and stored at room temperature. Buffer B containing 50 mM Tris, pH 8.0 is prepared and stored at room temperature. Stock solutions of the following reagents are prepared in Buffer B and stored at −20° C.: Adenosine-5′-triphosphate (ATP), cyclic adenosine-5′-monophosphate (cAMP), phosphoenolpyruvate (PEP) and NADH. An assay mix is prepared by mixing Buffer A, […] (TCEP), ATP, PEP, NADH, myokinase (MK), pyruvate kinase (PK), lactate dehydroganese (LDH) and PDE4 to a final volume of 20 mL, which is enough for a single 96-well assay plate. Assay mix (180 μL) and test article (10 μL) in 1:1 DMSO/H2O mixture is pre-incubated at room temperature for 10 min. The enzymatic reaction is initiated by addition of cAMP (10 μL). Final concentration of all components in the assay (200 μL/well) are as follows: 10 mM MgCl2, 50 mM KCl, 5 mM TCEP, 2.5% DMSO, 0.4 mM NADH, 1 mM PEP, 0.04 mM ATP, 5 units MK, 1 unit PK, 1 unit LDH and appropriate amount of PDE4. Reaction progress curves are monitored in a plate reader capable of measuring light absorbance at 340 nm. A decrease in light absorbance at 340 nm is due to oxidation of NADH. Positive controls containing no test article and negative controls containing no test article and no cAMP are included on every assay plate. Reaction rates are determined from the slopes of the linear portions of the progress curves. All data are percent normalized with respect to controls and presented as percent inhibition.

The test system of assay [1] is leukotriene E4 (LTE4) in human whole blood after Sephadex stimulation. Put plainly: Ex-vivo assay: Sephadex bead stimulated LTE4 production in human whole blood. The following applies: 1.5 h; heparinized human whole blood, Sephadex G-15 beads, 37° C. 90 min, LTE4 by immunoassay; read-out: IC50 (inhibition of LTE4 production). It counts as cell-based. Here is the method:
The activity of PDE4 inhibitors described in the present invention was also measured using in an ex-vivo assay measuring leukotriene E4 (LTE4) in human whole blood after Sephadex stimulation. […] For each sample, 356 μl of heparinized human whole blood (Vacutainer tube #6480) is added to wells of a 96 well plate. Then, 4 μl of a series of compound dilutions (in DMSO) are added in triplicates, suspension mixed and allowed to incubate at 37° C. for 15 min with gentle shaking. After that, blood samples are stimulated by adding 40 μL of Sephadex G-15 beads (Sigma-Aldrich, Sweden). The beads are predissolved in PBS (0.16 g/mL PBS). After mixing, the suspension is incubated at 37° C. for 90 min. Then, 8 μL of 15% EDTA/PBS is added to each sample, mixed and plate centrifuged for 5 min at 115×g at 21° C. and supernatants taken. In each plate, 10 positive controls and 10 negative controls are used, containing DMSO instead of compound solution. The positive controls are stimulated with Sephadex as described for the samples, and in the negative controls (unstimulated), Sephadex solution is replaced by PBS. LTE4 levels in the resulting plasma samples are determined using a commercial enzyme-linked immunoassay (Cayman Chemical Company, Ann Arbor, Mich.) according to the manufacturer's instructions. […]

Another assay has as its target PDE4 h4B1 (Homo sapiens, UniProt Q07343). The experiment in a line: In-vitro real-time enzyme-coupled spectrophotometric assay for PDE4 enzymes (h4B1). Format: biochemical. The settings on record: PDE4 isoform h4B1; enzyme-coupled NADH assay, absorbance at 340 nm. The procedure: as §1, §2

Bounds are passed on as bounds.

Sequence of PDE4 h4B1 (Q07343 whole entry, canonical isoform): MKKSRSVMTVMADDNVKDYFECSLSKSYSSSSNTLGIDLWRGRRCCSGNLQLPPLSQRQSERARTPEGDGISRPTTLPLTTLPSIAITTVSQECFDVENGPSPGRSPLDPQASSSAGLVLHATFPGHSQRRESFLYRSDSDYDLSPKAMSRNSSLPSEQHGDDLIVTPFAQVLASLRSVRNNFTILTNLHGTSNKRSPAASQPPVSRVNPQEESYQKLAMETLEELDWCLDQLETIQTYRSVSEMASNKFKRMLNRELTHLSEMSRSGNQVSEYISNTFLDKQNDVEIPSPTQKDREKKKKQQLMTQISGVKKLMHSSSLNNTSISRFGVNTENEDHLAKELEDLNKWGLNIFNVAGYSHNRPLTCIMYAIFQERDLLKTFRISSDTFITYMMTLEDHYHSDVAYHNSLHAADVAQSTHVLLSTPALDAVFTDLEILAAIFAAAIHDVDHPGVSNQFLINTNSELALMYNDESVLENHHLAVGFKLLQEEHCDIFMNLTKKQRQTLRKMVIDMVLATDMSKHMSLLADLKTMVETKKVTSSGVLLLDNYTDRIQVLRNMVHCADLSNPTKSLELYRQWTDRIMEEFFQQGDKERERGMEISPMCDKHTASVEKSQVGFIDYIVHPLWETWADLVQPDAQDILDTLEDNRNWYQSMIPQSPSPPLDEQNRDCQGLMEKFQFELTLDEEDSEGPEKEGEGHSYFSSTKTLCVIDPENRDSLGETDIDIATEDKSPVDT
Sequence of PDE4 h4D7 (Q08499 1-748 isoform Q08499-11): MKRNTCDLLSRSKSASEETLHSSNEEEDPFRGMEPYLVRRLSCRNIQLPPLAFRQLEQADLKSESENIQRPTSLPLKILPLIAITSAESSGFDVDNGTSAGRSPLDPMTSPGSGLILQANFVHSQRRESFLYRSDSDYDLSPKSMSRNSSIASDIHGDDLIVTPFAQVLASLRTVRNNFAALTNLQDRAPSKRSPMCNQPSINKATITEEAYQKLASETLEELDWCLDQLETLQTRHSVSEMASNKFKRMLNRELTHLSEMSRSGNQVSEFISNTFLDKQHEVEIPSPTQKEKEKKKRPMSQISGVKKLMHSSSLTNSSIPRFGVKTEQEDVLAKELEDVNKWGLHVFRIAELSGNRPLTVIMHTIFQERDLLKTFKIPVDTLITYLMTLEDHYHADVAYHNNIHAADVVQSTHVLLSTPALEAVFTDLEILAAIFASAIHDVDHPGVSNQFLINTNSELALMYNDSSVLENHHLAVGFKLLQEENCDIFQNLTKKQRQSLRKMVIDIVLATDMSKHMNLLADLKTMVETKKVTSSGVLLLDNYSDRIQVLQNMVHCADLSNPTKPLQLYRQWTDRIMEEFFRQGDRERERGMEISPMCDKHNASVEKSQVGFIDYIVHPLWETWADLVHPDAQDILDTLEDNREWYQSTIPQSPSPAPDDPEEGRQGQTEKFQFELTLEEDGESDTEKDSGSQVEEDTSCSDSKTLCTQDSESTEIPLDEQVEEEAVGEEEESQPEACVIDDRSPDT

As for `COc1ccc(Cc2ccc(F)cc2)c(F)c1Oc1cccc([N+](=O)[O-])c1` [Example P-01, 2-Fluoro-1-(4-fluoro-benzyl)-4-methoxy-3-(3-nitro-phenoxy)-benzene], the IC50 was below 1 µM on PDE4 h4D7, below 1 µM in assay [1] and above 21 µM against PDE4 h4B1.
With `COc1ccc(Cc2ccc(F)cc2)c(F)c1Oc1cccc(N)c1` [Example P-02, 3-[2-Fluoro-3-(4-fluoro-benzyl)-6-methoxy-phenoxy]-phenylamine], the IC50 against PDE4 h4D7 and on PDE4 h4B1 was above 21 µM in each case.
`COc1ccc(Cc2ccc(F)cc2)c(F)c1Oc1cccc(Cl)c1` [Example P-03, 2-(3-Chloro-phenoxy)-3-fluoro-4-(4-fluoro-benzyl)-1-methoxy-benzene]: the IC50 was below 1 µM against PDE4 h4D7 and 1 to 10 µM at PDE4 h4B1.
With `COc1ccc(Cc2ccc(NS(C)(=O)=O)cc2)cc1Oc1ccccc1` [Example P-04, N-[4-(4-Methoxy-3-phenoxy-benzyl)-phenyl]-methanesulfonamide], the IC50 on PDE4 h4D7 and against PDE4 h4B1 was above 21 µM each time.
With `COc1ccc(Cc2ccc(N)nc2)cc1Oc1cccc(Cl)c1` [Example P-05, 5-[3-(3-Chloro-phenoxy)-4-methoxy-benzyl]-pyridin-2-ylamine], the half-maximal inhibitory concentration (IC50) against PDE4 h4D7 fell in the range of 1 to 10 µM; against PDE4 h4B1, 11 to 20 µM.
`COc1ccc(Cc2ccc(NC(N)=O)nc2)cc1Oc1cccc(Cl)c1` [Example P-06, {5-[3-(3-Chloro-phenoxy)-4-methoxy-benzyl]-pyridin-2-yl}-urea]: the half-inhibitory concentration (IC50) against PDE4 h4D7 and against PDE4 h4B1 was 1 to 10 µM in each case.
Turning to `COc1ccc(Cc2ccc(N)cc2)cc1Oc1cccc(Cl)c1` [Example P-07, 4-[3-(3-Chloro-phenoxy)-4-methoxy-benzyl]-phenylamine], the half-inhibitory concentration (IC50) against PDE4 h4D7 and against PDE4 h4B1 was 1 to 10 µM each time.
As for `COc1ccc(Cc2ccc(O)cc2)cc1Oc1cccc(Cl)c1` [Example P-08, 4-[3-(3-chloro-phenoxy)-4-methoxy-benzyl]-phenol], the IC50 on PDE4 h4D7 was 1 to 10 µM; on PDE4 h4B1 it was above 21 µM.
Take `COc1ccc(Cc2ccc(NS(C)(=O)=O)nc2)cc1Oc1cccc(Cl)c1` [Example P-09, N-{5-[3-(3-Chloro-phenoxy)-4-methoxy-benzyl]-pyridin-2-yl}-methanesulfonamide]: the 50% inhibitory concentration (IC50) on PDE4 h4D7 was 1 to 10 µM; on PDE4 h4B1 it was above 21 µM.
As to `COc1ccc(Cc2ccc(NC(C)=O)cc2)c(F)c1Oc1ccc(F)cc1` [Example P-10, N-{4-[2-Fluoro-3-(4-fluoro-phenoxy)-4-methoxy-benzyl]-phenyl}-acetamide], the concentration for half-maximal inhibition (IC50) is 11 to 20 µM against PDE4 h4D7 and above 21 µM at PDE4 h4B1.
Consider `COc1ccc(Cc2ccc(NC(N)=O)cc2)c(F)c1Oc1ccc(F)cc1` [Example P-11, {4-[2-Fluoro-3-(4-fluoro-phenoxy)-4-methoxy-benzyl]-phenyl}-urea], for which the IC50 was below 1 µM against PDE4 h4D7 and 1 to 10 µM against PDE4 h4B1.
Consider `COc1ccc(Cc2ccc(NC(N)=O)cc2)c(F)c1Oc1ccccn1` [Example P-12], for which the half-maximal inhibitory concentration (IC50) against PDE4 h4D7 is below 1 µM; against PDE4 h4B1 it was above 21 µM.
